Laboratory results published in patent US5104897A, “Medical uses of halogen substituted diphenylsulfides” (Burroughs Wellcome Co., priority 1989, dated 1992).

Assays:
Assay type in all cases: biochemical
[1] = tested on: Dopamine uptake (crude synaptosomal preparation); test: Uptake of 3H-dopamine in crude synaptosomal preparations of rat hypothalamus and striatum; conditions: at 10^-5 (Molar by title), rat synaptosomes, mean of triplicate assay with S.E.M. < ±5%
Procedure: (§1) Activity Studies Uptake of ^3 H-Biogenic Amines in Crude Synaptosomal Preparations of Rat Hypothalamus and Striatum.
(§2) A 0.5 mL aliquot of a crude synaptosomal preparation prepared according to the technique of Ferris et al., J. Pharm. Exp. Ther., 181, 407 (1972) and Patrick et al., J. Pharm. Exp. Ther., 241, 152 (1987) was incubated in a standard incubation medium containing 10 μM iproniazid, 1 μM ascorbate and […] of either [^3 H]dopamine, [^3 H]1-norepinephrine or [^3 H]serotonin. Final volumes were 3 mL.
(§3) All incubations were conducted for 3 minutes under an atmosphere of 95% O2 -5% CO2. The uptake at 0° C. and 37° C. was determined in each experiment and the difference between the two determinations represented the accumulation of [^3 H]amine by the temperature-dependent uptake process. Test compounds were dissolved in the standard incubation medium and preincubated with the crude synaptosomal preparation for 5 mintes, before the addition of the labeled substrate.
(§4) Reactions were stopped by the addition of 2 mL of ice-cold 0.32M sucrose containing 25 mM Tris buffer, pH 7.4, and rapid cooling in an ice-bath. Samples were centrifuged at 49,600×g for 10 minutes. The resulting pellet was washed with 5 mL of 0.9% saline and again centrifuged. […] A 1 mL aliquot of the supernatant was taken for determination of radioactivity.

[2] = tested on: Serotonin uptake (crude synaptosomal preparation); test: Uptake of 3H-serotonin in crude synaptosomal preparations of rat hypothalamus and striatum; conditions: rat hypothalamus/striatum synaptosomes, 5 min preincubation, 3 min incubation, 37° C. minus 0° C. uptake, read-out: IC50 (Molar) for Inhibition of Biogenic Amine Uptake, Serotonin
Procedure: as §1, §2, §3, §4

[3] = tested on: Norepinephrine uptake (crude synaptosomal preparation); test: Uptake of 3H-norepinephrine in crude synaptosomal preparations of rat hypothalamus and striatum; conditions: [3H]1-norepinephrine, rat hypothalamus/striatum synaptosomes, 5 min preincubation, 3 min incubation, 37° C. minus 0° C. uptake; read-out: IC50 (Molar) for Inhibition of Biogenic Amine Uptake, Norepinephrine
Procedure: as §1, §2, §3, §4

5-Chloro-2-((2-((methylamino)methyl)phenyl)thio)benzyl Alcohol [Example 5]
Percent inhibition of Dopamine uptake [1]: 38% | IC50 [2]: 21 nM | IC50 [3]: 110 nM

CN(C)Cc1ccccc1Sc1ccc(Cl)cc1CO.Cl [Example 2, 5-chloro-2-((2-((dimethylamino)methyl)phenyl)thio)benzyl alcohol hydrochloride]
Percent inhibition of Dopamine uptake [1]: 15% | IC50 [2]: 2.1 nM | IC50 [3]: 55 nM
